Measured values reported in patent publication US20250019701A1, “TREATMENT FOR INFLAMMATORY DISEASE” (priority 2021, published 2025).

B1: TSPO (the 18 kDa translocator protein) (other)
chain: APPWVPAMGFTLAPSLGCFVGSRFVHGEGLRWYAGLQKPSWHPPHWVLGPVWGTLYSAMGYGSYLVWKELGGFTEKAVVPLGLYTGQLALNWAWPPIFFGARQMGWALVDLLLVSGAAAATTVAWYQVSPLAARLLYPYLAWLAFTTTLNYCVWRDNHGWRGGRRLPE
notes: also called peripheral benzodiazepine receptor

Experiments:
THP-1 cells [1] = type: cell-based, human; details: 48 hours ligand treatment
THP-1 cells [2] = type: cell-based, human
A549 cells [3] = tested on: A549 cells
A549 cells [4] = type: cell-based, human
ASC = type: cell-based, human; details: THP-1; after ORF8 transfection; 30 uM Etifoxine or 200 nM PK11195 for 24 hours
Vero cells = details: etifoxine 30 μM, counting adherent cells
[5] = biological target: T1, NLRP3 (NLR family pyrin domain containing 3) (human, UniProt Q96P20 1-1036); experiment: co-immunoprecipitation from THP-1 cells, TSPO as bait, western blot
T1 construct: Endogenous protein in the THP-1 cell lysate; also called NRLP3
T1 sequence (Q96P20 whole entry, the tested form may be a part): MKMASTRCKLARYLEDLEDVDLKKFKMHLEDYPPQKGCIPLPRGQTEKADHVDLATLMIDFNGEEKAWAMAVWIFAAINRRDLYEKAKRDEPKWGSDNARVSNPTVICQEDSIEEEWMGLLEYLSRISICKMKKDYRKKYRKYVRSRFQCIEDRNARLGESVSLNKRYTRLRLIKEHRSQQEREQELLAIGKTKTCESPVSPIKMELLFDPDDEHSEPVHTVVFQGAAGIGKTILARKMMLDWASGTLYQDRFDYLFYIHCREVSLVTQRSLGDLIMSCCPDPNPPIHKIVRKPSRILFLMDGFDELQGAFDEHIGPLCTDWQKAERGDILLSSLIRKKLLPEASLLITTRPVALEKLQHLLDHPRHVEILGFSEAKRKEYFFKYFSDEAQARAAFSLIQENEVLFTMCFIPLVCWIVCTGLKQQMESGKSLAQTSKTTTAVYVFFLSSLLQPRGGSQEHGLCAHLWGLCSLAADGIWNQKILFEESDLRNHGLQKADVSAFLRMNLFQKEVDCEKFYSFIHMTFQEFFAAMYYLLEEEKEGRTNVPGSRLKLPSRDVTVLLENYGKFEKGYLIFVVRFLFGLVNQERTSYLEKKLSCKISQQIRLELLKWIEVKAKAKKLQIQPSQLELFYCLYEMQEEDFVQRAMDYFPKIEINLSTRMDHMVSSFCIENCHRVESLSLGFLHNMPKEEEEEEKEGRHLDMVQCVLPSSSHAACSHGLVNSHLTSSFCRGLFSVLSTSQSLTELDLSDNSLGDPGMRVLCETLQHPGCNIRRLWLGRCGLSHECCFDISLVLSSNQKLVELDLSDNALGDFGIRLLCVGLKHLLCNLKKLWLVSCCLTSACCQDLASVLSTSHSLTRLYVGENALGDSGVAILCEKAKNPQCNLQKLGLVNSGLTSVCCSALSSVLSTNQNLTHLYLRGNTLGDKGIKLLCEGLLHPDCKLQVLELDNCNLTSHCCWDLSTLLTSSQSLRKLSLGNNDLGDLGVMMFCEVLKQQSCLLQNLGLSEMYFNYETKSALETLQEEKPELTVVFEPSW

Row | Molecule | PI cell death (qualitative) (THP-1 cells [1]) | cell death by LDH release (qualitative) (THP-1 cells [2]) | PI cell death, ORF3a induced cytotoxicity (qualitative) (A549 cells [3]) | cell death by LDH release (qualitative) (A549 cells [4]) | ASC protein levels co-immunoprecipitated with TSPO (qualitative) (ASC) | reduction of cell death (Vero cells) | binding result [5]
1 | CCCCCCN(CCCCCC)C(=O)Cc1c(-c2ccc(F)cc2)[nH]c2ccccc12 [FGIN, FGIN 1-27] | decrease | confer cytoprotection | significant decrease | confer cytoprotection |  |  | 
2 | CCC(C)N(C)C(=O)c1cc2ccccc2c(-c2ccccc2Cl)n1 (stereo not shown) [PK11195] | decrease | confer cytoprotection | significant decrease | confer cytoprotection | decrease in protein levels |  | 
3 | CCN(Cc1ccccc1)C(=O)Cn1c(=O)n(C)c2cnc(-c3ccccc3)nc21 [XBD173] | decrease | confer cytoprotection | significant decrease | confer cytoprotection |  |  | 
4 | CCNC1=Nc2ccc(Cl)cc2C(C)(c2ccccc2)O1 (stereo not shown) [etifoxine] |  | confer cytoprotection | significant decrease | confer cytoprotection | decrease in protein levels | approximately 50% | 
5 | B1 |  |  |  |  |  |  | no binding
